Laboratory results published in patent US8207128B2, “Polypeptide inhibiting transmigration of leukocytes or growth and/or metastasis of cancer cells, and fusion protein thereof” (Supadelixir Inc., priority 2005, dated 2012).

Tests used:
[1] = test system: mice with RA; experiment: Transmigration of lymphocytes and myeloid cells in the spleens of RA mice, flow cytometry; type: in vivo; details: spleen, i.p. at 2-day intervals for 4 weeks, similar to MTX-treated group, FIG. 6
Source text: A polypeptide of SEQ ID NO: 26 (40 MOOD) was intraperitoneally administered to mice with RA, which had been induced in the same manner in EXPERIMENTAL EXAMPLE 2, at 2-day intervals for 4 weeks. Normal mice, saline-treated RA mice with intraperitoneal injection of a saline solution, and MTX-treated RA mice with intraperitoneal injection of a solution of MTX (100 □) in a saline solution (100 □) were used as control groups. Spleen tissues were harvested from the mice of all the experimental groups and washed with RPMI 1640 media, and single cells were isolated. After the total number of the single cells were counted, the single cells were stained with monoclonal antibodies (anti-CD3^+, CD4^+, CD8^+, CD11^+, CD19^+, CD69^+, Gr-1^+) capable of labeling T cells (CD3^+, CD4^+, CD8^+), activated T cells (CD3^+, CD69^+), B cells (CD19^+), and myeloid cells (CD11^+, Gr-1^+), and flow cytometry analysis was performed. The number of lymphocytes and myeloid cells migrated to […] was measured by determining the number of the T cells, the activated T cells, the B cells, and the myeloid cells per total cell number, and the results are illustrated in FIG. 6.

[2] = test system: RA mice; experiment: Migration of T cells, B cells and myeloid cells into the joint spaces of RA mice, synovial fluid flow cytometry; type: in vivo; details: dosing as in Experimental Example 3, similar to MTX-treated group, FIG. 7
Procedure: The polypeptide of the present invention, a saline solution, or MTX was administered to RA mice in the same manner as in EXPERIMENTAL EXAMPLE 3, and synovial fluid was obtained from the joint spaces of the mice of all the experimental groups. After the total cell number in the synovial fluid was counted, flow cytometry analysis was performed in the same manner as in EXPERIMENTAL EXAMPLE 3 to measure the number of T cells (CD3^+), B cells (CD19^+), and myeloid cells (CD11b^+, Gr-1^+) migrated to the joint spaces. The results are illustrated in FIG. 7.

[3] = test system: B16-F10-Luc-G5 cells (mouse melanoma cell line); experiment: In vivo transmigration of cancer cells, B16-F10-Luc-G5 injected into tail veins, lung and liver nodules; details: nude mice; 100 μg i.p. at 2-day intervals for 15 days; control peptide SEQ ID NO: 27; FIG. 17
Procedure: B16-F10-Luc-G5 cells (mouse melanoma cell line, Xenogen, U.S.A.) were injected into the tail veins of 10 nude mice (5 weeks old). The nude mice were divided into five mice for a control group and five mice for a test group. The control group was injected with a mixture of PBS with a peptide consisting of EEFDDAEEFDD (SEQ ID NO: 27) (control peptide) and the test group with a mixture of PBS with 100 μg of a peptide of SEQ ID NO: 26. The control peptide and the peptide of SEQ ID NO: 26 were intraperitoneally administered to the control group and the test group, respectively, at 2-day intervals for 15 days. Then, the nude mice were dissected and the lungs and livers were excised from the nude mice. Tumor nodules were counted.

SEQ ID NO: 26: polypeptide derived from the mouse CD99, corresponds to the polypeptide of SEQ ID No: 14 derived from human CD99 (SGGISDSDLAD; listed as Mus musculus)
migrated cell numbers of T cells, activated T cells, B cells and myeloid cells as fraction of saline-treated group [1]: about ⅔
number of T cells, B cells and myeloid cells migrated to joint spaces, relative to saline-treated group [2]: 50-70%
degree of spread of melanoma (lung and liver nodules) relative to control group [3]: about 40%
